Measurements reported in ChEMBL document CHEMBL1201862, “PubChem BioAssay data set” (2004).
Activity calls are given as the source filed them.

Columns and labels:
HEK293 = assay: viability loss in HEK293T cells – cell-based, ATP luminescence, cherry-pick samples, cytotoxicity control, dose response (AID 687005); assay type: functional; details: Homo sapiens;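 also: cells exposed to compound for 48 hours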
[1] = HEK293 Cytotoxicity Assay Measured in Cell-Based System Using Plate Reader - 7071-01_Inhibitor_Dose_CherryPick_Activity_Set2.; assay type: functional
[2] = reduction of Shn3 3'UTR-driven luciferase in osteoblasts – cell-based, Clone20 osteoblasts, firefly luciferase, cherry-picked, dose response (AID 624132); assay type: functional;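 also: firefly luciferase luminescence from reporter carrying the Shn3 3'UTR in osteoblasts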
[3] = loss of viability in HepG2 cells – cell-based, CellTiter-Glo, cherry-picked, cytotoxicity control for Shn3 inhibitor project, dose response (AID 624134); assay type: functional
[4] = non-specific 3'UTR reporter inhibition in Clone20-Shn3RL – cell-based, Renilla luciferase, cherry-picked, counter-screen for Shn3 inhibitor project, dose response (AID 624133); assay type: functional
[5] = Shn3 3'UTR reporter signal decrease – cell-based, Clone20 osteoblasts, firefly luciferase, cherry-pick, set 2, Schnurri-3 inhibitor project, dose response (AID 720490); assay type: functional;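 also: actives lower the luminescence signal as inhibitors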
[6] = A2780 cell killing – plate reader, dry powder samples, cytotoxicity control, dose response (AID 743046); assay type: functional, cell-based
[7] = IGROV1 cell killing – plate reader, dry powder samples, PAX8 inhibitor project, dose response (AID 743043); assay type: functional, cell-based; details: IGROV-1
[8] = general cell-killing toxicity readout – plate reader, dry powder samples, cytotoxicity control for PAX8 inhibitor project, dose response (AID 743021); assay type: functional, cell-based
[9] = P. falciparum Dd2 growth inhibitors, dose response, SYBR Green, cherry-picked samples (AID 1159567); assay type: functional, cell-based
[10] = toxicity to human hepatoma HepG2 cells – cell-based, cherry-picked samples, cytotoxicity control, dose response (AID 1159577); assay type: functional
Jurkat = assay: blockers of NF-kB activation in T cells – Jurkat, luciferase reporter, luminescence, B- and T-cell, dose response (AID 489004); assay type: functional, cell-based; details: Homo sapiens;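 also: NF-kB luciferase reporter Jurkat cells stimulated with PMA plus ionomycin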
[11] = HEK-293T viability loss, compound-treated – cell-based, uHTS hits, cytotoxicity control for B/T-cell NF-kB inhibitor project, dose response (AID 489019); assay type: functional;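 also: IC50 reflects cytotoxicity as loss of cell viability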
[12] = target: T1, Microphthalmia-associated transcription factor (Homo sapiens, UniProt O75030); assay: reducers of TRPM1 reporter luminescence, concentration series – cell-based, SK-MEL-5, cherry-picked, set 3, MITF inhibitor project, dose response (AID 493073); assay type: functional;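 also: SK-MEL-5 melanoma cells with luciferase driven by the MITF target TRPM1 promoter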
T1 sequence (O75030 whole entry): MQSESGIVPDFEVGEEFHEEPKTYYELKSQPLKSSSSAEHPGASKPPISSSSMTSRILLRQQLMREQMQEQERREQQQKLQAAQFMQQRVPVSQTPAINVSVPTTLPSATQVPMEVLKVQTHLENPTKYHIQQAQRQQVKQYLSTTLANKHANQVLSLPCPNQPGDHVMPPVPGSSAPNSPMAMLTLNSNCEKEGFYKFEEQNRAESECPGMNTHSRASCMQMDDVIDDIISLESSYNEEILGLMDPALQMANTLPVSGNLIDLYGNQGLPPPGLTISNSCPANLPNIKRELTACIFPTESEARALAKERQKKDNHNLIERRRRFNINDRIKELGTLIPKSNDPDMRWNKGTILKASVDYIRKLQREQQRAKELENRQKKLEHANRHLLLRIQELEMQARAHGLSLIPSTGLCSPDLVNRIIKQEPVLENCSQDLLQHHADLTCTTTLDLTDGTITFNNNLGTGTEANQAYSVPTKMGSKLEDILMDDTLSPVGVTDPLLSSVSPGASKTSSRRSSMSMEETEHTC

Melanocortin receptor 4 = Melanocortin receptor 4 (Homo sapiens, UniProt P32245); assay: inhibitors of MC4R cAMP signaling – cell-based, TR-FRET, biased antagonists, dose response (AID 602298); assay type: functional;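 also: antagonist potency against agonist-stimulated cAMP production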
Chain of Melanocortin receptor 4 (P32245 whole entry): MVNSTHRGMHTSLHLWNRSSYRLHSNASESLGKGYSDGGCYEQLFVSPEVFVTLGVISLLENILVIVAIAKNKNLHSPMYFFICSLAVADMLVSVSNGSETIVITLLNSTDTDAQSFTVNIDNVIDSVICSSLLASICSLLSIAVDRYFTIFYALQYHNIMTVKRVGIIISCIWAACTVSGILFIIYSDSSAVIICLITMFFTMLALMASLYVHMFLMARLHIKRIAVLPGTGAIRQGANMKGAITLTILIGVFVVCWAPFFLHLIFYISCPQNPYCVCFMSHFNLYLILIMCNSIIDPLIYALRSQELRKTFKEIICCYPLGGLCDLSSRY

[13] = cAMP pathway inhibition in counterscreen cell line – TR-FRET cAMP detection, counter-screen for MC4R biased antagonist project, dose response (AID 602305); assay type: functional, cell-based;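 also: U2OS cells stimulated with forskolin near its EC80 as the cAMP inducer; potency is for inhibition of forskolin-stimulated cAMP signaling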
[14] = blockers of HIV-1 envelope-mediated cell-cell fusion – cherry-pick, dose response (AID 652057); assay type: functional, cell-based
[15] = viability loss in CEM21 cells – cell-based, CellTiter-Glo luminescence, cherry-picked, cytotoxicity control for viral fusion inhibitor project, dose response (AID 652042); assay type: functional;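 also: potency for signal decrease meaning cytotoxicity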
[16] = blockers of HIV-1 ZM109 envelope-driven cell-cell fusion – HeLa effector, CEM target cells, luciferase, cherry-pick, dose response (AID 652058); assay type: functional, cell-based;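 also: luciferase signal from HIV-1 Env mediated cell-cell fusion of effector and target cells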
Paired box protein Pax-8 = Paired box protein Pax-8 (Homo sapiens, UniProt Q06710); assay: PAX8 transcriptional activity inhibition in RMG-I – RMG-I cells, luciferase, cherry-pick, dose response (AID 687027); assay type: functional, cell-based;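 also: luciferase reporter driven by Pax8 target thyroperoxidase promoter measured by SteadyGlo luminescence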
Chain of Paired box protein Pax-8 (Q06710 whole entry, the tested form may be a part): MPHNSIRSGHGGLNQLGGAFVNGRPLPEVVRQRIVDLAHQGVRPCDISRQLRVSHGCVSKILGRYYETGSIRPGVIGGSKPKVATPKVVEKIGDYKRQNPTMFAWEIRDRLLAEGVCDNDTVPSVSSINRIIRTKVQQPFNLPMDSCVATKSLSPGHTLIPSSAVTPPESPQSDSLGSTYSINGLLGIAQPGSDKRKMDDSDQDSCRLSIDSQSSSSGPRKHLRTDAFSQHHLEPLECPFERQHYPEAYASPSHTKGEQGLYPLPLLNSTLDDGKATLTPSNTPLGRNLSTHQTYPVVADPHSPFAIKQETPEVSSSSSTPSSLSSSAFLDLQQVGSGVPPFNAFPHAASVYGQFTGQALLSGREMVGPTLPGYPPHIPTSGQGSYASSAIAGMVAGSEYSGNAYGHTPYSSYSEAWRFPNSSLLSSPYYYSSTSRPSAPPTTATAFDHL

[17] = off-target signal loss in HeLa-CEM21 co-culture – HeLa F-luc CTL cells, cherry-picked, counter-screen for HIV-1 Env fusion inhibitor project, dose response (AID 652040); assay type: functional, cell-based;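 also: potency for signal decrease marking cytotoxic or nonspecific inhibition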
[18] = HIV-1 AD8 envelope cell-cell fusion blockers – cherry-pick, dose response (AID 652062); assay type: functional, cell-based;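 also: luciferase signal from cell-cell fusion driven by HIV-1 clade B AD8 Env; potency is for inhibitors of fusion seen as a drop in luminescence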
[19] = reduced cellular PGC1a acetyl-lysine signal – cell-based, cherry-picked samples, dose response (AID 720514); assay type: functional;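 also: potency may reflect raised or lowered acetylation signal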
[20] = A549 cell cytotoxicity, dose response, cytotoxicity control, plate reader, cherry-pick, antagonist series (AID 743412); assay type: functional, cell-based
[21] = toxicity toward HepG2 liver cells – cell-based, plate reader, cherry-pick, antagonist series, cytotoxicity control, dose response (AID 743416); assay type: functional
[22] = blockers of bursicon-stimulated LGR2 cAMP reporter – cell-based, HEK293, CRE-luciferase reporter, cherry pick, set 2, dose response (AID 743343); assay type: functional;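 also: transfected cells were stimulated with diluted bursicon conditioned medium after compound addition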
[23] = blockade of melanocortin 4 receptor signaling – cell-based, plate reader, cherry pick, counter-screen for LGR2 antagonist project, dose response (AID 743444); assay type: functional;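 also: transfected HEK 293 cells stimulated with alpha-MSH peptide; potency of inhibitors of the alpha-MSH evoked signal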
[24] = viability loss in HEK293 cells – cell-based, plate reader, cherry-picked samples, cytotoxicity control, dose response (AID 743446); assay type: functional
fMet-Leu-Phe receptor = fMet-Leu-Phe receptor (Homo sapiens, UniProt P21462); assay: formyl peptide receptor binders – dose response (AID 519); assay type: functional
Chain of fMet-Leu-Phe receptor (P21462 whole entry): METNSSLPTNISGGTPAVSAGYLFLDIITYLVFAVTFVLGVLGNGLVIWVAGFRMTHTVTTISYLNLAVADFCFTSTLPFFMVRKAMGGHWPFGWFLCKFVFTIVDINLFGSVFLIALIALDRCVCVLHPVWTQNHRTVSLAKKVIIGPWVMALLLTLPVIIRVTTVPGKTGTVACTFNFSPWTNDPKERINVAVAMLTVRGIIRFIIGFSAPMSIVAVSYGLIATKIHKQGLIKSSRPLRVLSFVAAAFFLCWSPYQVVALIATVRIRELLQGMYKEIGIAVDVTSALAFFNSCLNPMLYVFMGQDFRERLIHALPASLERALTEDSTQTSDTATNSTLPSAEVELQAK

Cytochrome P450 3A4 = Cytochrome P450 3A4 (Homo sapiens, UniProt P08684);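 also: CYP3A4 tested as one member of a cytochrome P450 panel screen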
Chain of Cytochrome P450 3A4 (P08684 whole entry): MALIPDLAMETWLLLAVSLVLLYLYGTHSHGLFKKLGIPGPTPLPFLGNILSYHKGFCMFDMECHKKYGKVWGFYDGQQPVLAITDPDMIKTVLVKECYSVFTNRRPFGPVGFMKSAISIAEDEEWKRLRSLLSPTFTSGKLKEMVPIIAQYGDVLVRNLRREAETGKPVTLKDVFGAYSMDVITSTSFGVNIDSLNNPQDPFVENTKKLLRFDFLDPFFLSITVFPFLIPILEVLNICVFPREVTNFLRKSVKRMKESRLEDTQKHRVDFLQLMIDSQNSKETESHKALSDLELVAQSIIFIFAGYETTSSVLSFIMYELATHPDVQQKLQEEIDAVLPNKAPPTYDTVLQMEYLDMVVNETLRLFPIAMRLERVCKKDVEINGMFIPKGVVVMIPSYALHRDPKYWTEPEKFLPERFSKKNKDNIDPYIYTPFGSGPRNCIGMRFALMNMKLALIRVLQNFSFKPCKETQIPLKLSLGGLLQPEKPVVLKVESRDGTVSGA

[25] = NIH-3T3 fibroblast cytotoxicity, dose response, cytotoxicity control, cell-based, fluorescence, Alamar Blue, secondary assay (AID 2327); assay type: functional;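 also: NIH-3T3 mouse fibroblasts cultured with fluconazole at 8 µg/mL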
[26] = fluconazole-exposed Candida albicans growth modulators – fluorescence, retest, confirmation (AID 2467); assay type: functional, cell-based
[27] = HEK-293T viability loss after treatment – luminescence, T-cell screen hits, cytotoxicity control for TCR NF-kB inhibitor project, dose response (AID 489026); assay type: functional, cell-based;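 also: cells exposed to compound about 14 hours before the viability readout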
[28] = target: Heat shock protein HSP 90-alpha (Homo sapiens, UniProt P07900); assay type: functional, organism-based
Galanin receptor type 3 = Galanin receptor type 3 (Homo sapiens, UniProt O60755); assay: Fluorescence-based cell-based primary high throughput dose response assay to identify antagonists of the Galanin Receptor 3 (GalR3).; assay type: functional
Chain of Galanin receptor type 3 (O60755 whole entry): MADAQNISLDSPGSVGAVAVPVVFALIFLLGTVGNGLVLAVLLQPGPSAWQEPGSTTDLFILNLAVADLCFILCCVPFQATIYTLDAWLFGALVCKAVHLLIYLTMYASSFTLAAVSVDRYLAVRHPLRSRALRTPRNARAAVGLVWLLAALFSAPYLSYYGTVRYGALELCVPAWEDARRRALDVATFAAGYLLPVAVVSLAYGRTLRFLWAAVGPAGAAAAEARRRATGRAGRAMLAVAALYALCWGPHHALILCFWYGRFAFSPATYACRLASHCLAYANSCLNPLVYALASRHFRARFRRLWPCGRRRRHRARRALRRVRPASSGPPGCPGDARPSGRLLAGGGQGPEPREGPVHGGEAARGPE

cells = assay type: functional, cell-based; details: HEK-CNG
[29] = target: T2, High affinity choline transporter 1 (Homo sapiens, UniProt Q9GZV3); assay: human choline transporter blockers, potency – cell-based, 5-point CRC, membrane potential dye, dose response (AID 504840); assay type: functional
T2 sequence (Q9GZV3 whole entry): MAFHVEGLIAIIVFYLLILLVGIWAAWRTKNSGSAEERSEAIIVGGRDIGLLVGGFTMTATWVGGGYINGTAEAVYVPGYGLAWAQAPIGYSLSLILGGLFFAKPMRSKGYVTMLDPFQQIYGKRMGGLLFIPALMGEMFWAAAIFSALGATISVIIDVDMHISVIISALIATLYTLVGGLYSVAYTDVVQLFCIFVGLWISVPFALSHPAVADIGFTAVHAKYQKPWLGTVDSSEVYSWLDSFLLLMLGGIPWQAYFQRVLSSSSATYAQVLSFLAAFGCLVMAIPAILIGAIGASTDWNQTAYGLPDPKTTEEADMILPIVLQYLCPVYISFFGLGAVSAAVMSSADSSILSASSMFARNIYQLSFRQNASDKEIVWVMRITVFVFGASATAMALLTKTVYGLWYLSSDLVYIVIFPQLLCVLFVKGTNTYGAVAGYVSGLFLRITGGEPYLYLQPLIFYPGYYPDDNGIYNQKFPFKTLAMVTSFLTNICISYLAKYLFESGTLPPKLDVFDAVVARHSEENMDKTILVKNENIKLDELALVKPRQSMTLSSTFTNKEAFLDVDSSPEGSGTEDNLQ

Caspase-6 = Caspase-6 (Homo sapiens, UniProt P55212); assay: inhibition of CASP6 peptide cleavage – biochemical, VEID-R110 fluorescence, cherry-pick, dose response (AID 720632)
Chain of Caspase-6 (P55212 24-179 limits assumed): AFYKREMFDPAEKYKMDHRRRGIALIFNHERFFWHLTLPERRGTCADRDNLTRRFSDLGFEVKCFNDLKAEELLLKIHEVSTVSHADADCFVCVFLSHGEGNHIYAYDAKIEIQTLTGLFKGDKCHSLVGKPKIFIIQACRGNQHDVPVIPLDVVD
Chain of Caspase-6 (P55212 194-293 limits assumed): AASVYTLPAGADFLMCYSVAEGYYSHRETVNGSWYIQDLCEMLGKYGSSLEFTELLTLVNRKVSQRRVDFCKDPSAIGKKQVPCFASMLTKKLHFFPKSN

[30] = target: T3, Histone-lysine N-methyltransferase NSD2 (Homo sapiens, UniProt O96028); assay type: biochemical
T3 sequence (O96028 whole entry): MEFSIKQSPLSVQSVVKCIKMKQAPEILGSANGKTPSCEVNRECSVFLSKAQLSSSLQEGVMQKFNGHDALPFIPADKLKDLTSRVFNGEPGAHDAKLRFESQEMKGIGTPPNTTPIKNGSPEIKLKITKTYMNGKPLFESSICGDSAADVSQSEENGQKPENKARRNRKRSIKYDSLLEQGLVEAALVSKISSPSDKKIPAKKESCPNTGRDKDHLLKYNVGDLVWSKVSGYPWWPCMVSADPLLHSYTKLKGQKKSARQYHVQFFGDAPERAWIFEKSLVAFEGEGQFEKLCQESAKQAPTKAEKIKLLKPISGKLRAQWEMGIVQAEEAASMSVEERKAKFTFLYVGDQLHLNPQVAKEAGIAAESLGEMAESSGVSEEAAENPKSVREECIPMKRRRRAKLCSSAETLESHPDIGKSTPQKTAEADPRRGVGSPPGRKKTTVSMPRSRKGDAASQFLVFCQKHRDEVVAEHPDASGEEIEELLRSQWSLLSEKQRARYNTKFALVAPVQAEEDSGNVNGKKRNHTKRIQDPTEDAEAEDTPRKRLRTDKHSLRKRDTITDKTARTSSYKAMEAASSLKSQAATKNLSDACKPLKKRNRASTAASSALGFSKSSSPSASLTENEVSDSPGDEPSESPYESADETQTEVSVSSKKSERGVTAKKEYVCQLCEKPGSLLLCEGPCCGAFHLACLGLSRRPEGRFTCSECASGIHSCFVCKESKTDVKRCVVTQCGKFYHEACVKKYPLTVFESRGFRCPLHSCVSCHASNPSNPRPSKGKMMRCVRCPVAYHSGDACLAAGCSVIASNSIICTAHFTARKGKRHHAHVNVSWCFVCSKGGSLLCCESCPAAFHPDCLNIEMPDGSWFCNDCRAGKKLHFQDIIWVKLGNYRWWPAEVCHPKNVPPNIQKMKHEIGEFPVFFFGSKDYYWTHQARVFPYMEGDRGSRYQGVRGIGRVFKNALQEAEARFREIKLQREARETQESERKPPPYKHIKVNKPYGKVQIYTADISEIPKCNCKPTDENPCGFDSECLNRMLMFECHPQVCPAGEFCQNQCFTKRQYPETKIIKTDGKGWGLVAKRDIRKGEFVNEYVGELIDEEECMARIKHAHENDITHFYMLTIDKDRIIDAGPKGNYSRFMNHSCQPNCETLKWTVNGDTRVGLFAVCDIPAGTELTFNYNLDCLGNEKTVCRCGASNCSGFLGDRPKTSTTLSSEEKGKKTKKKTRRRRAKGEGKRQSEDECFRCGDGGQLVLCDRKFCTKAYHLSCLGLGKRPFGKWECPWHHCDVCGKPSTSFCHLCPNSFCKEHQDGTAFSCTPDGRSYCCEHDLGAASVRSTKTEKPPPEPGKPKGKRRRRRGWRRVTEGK

CN1C(=O)c2cc(NC(=O)NC3CCCC3)ccc2OC[C@H]2O[C@@H](CC(=O)NCC3CC3)CC[C@@H]21
inactive: AC50 (HEK293) > 57 µM | AC50 [1] > 57 µM

Cc1ccc([C@@H]2CC(=O)[C@@H]3CN(S(=O)(=O)c4ccccc4C)[C@H](c4ccc(Cl)cc4)C[C@@H]3N2S(=O)(=O)c2ccc(C)cc2)cc1
active: AC50 [2] 361 nM | AC50 [3] 36.7 µM | AC50 [4] 3.29 µM | AC50 [5] 672 nM

Cc1ccc(-c2ccc([C@@H]3[C@@H]4CN(Cc5ccccc5F)C[C@H]3N4)cc2)cc1
active: AC50 [6] 63.6 µM | AC50 [7] 55.4 µM | AC50 [8] 13.2 µM | AC50 [9] 4.05 µM | AC50 [10] 10.3 µM

Cc1noc(C)c1NC(=O)Nc1ccc2c(c1)C(=O)N([C@H](C)CO)C[C@@H](C)[C@H](CN(C)S(C)(=O)=O)OCCCC[C@@H](C)O2
active: AC50 (HEK293) 16.3 µM | AC50 [1] 16.3 µM

C#CC(=O)N(c1ccc(OC)cc1OC)C(C(=O)NC1CCCC1)c1cccs1 (stereo not given)
inactive: IC50 [11] 37.3 µM | IC50 (Melanocortin receptor 4) > 64.6 µM | IC50 [13] > 64.6 µM
active: IC50 (Jurkat) 320 nM | AC50 [12] 4.73 µM | AC50 [2] 7120 nM | AC50 [3] 4.23 µM | AC50 [4] 1.11 µM | AC50 [14] 14.8 µM | AC50 [15] 631 nM | AC50 [16] 14.4 µM | AC50 (Paired box protein Pax-8) < 260 nM | AC50 [17] 4.53 µM | AC50 [18] 9.92 µM | AC50 [19] 3.91 µM | AC50 [20] 13.4 µM | AC50 [21] 839 nM | AC50 [22] 8.43 µM | AC50 [8] 0.678 µM | AC50 [23] 6.64 µM | AC50 [24] 1.87 µM

COc1ccc(-c2cc(C(F)(F)F)nc(N3CCCCC3)n2)cc1OC
inactive: Ki (fMet-Leu-Phe receptor) > 66.7 µM
inconclusive: AC50 (Cytochrome P450 3A4) 25.1 µM

CC(C)CCOc1cccc(OCC(=O)Nc2ccncc2)c1
active: EC50 [26] 3.63 µM | AC50 [28] 2.62 µM | AC50 [2] 571 nM | AC50 [3] 48.5 µM | AC50 [4] 2.72 µM | IC50 (Galanin receptor type 3) 1.06 µM | AC50 [5] 1070 nM
inactive: EC50 [25] > 160 µM | IC50 [27] > 80 µM | EC50 (cells) > 29.9 µM

O=C1N/C(=N\c2ccccc2Cl)S/C1=C\c1cccc([N+](=O)[O-])c1O
active: IC50 [29] 12.6 µM | AC50 (Caspase-6) 11 µM | AC50 [30] 19.2 µM

CC(C)C(=O)C1=Cc2cccc([N+](=O)[O-])c2OC1N1CCOCC1 (stereo not given)
active: AC50 (Caspase-6) 43.7 µM
